# According to patent US4742045A, “Glycopeptide antibiotics” (SmithKline Beckman Corporation, priority 1986, dated 1988):
# Where two headings read alike, the source gives them in different places.
# How the values were obtained:
# [1] = test system: Staphylococcus epidermidis; test: standard microtiter assay, minimum inhibitory concentration; assay type: cell-based
# From the text: (§1) Representative results of standard microtiter assays are reported in Tables 1, 2 and 3 which follow, as the minimum inhibitory concentration of antibiotic (μg/ml).
# (§2) In Table 1, test organisms 1-13 were different strains of Staphylococcus aureus, and 14-16 were different strains of Staphylococcus epidermidis. In Table 2, test organisms 1-5 were different strains of S. aureus; 6, 8, 12 and 14 were different strains of S. epidermidis; 7 was a Staphylococcus haemolyticus; 9 and 10 were different strains of Streptococcus faecalis; 11 was a Streptococcus pyogenes; and 13 was a Staphylococcus saprophyticus. In Table 3, test organisms 1-3 were different strains of S. aureus; 4 and 6 were different strains of S. epidermidis; 5 was a S. haemolyticus and 7 and 8 were different strains of Streptococcus faecalis. Except where individual components are indicated, the CWI-785 antibiotic employed was the CWI-785 complex; in some cases, HCl salts of the CWI-785 antibiotic were employed.
# (§3) In Table 5 are shown data from standard microtiter assays carried out in a presence of no serum, 50% human serum (hum.) and 50% mouse serum (mse.). The test organisms were 1: S. aureus; 2,4 and 5: different strains of S. epidermidis; 3: S. haemolyticus; 6: S. saprophyticus; 7 and 8: different strains of S. faecalis.
# [2] = test system: Staphylococcus haemolyticus; test: as above; assay type: cell-based; settings: Table 3 test organism 5, S. haemolyticus
# From the text: as §1, §2, §3
# Staphylococcus aureus = test: as above; assay type: cell-based; settings: for MIC: Staphylococcus aureus, read-out: minimum inhibitory concentration
# From the text: as §1, §2
# (§4) The number of strains tested is shown in parentheses below each organism. The average MIC is reported in μg/ml.
# as §3
# Streptococcus faecalis = test: as above; assay type: cell-based
# From the text: as §1, §2, §4, §3
# STAPH. AUREUS HH 127 = test: prophylactic activity, dosing preinfection; assay type: in vivo, mice; settings: for survival printed in parentheses under ED 50: Table 8, printed with ED 50 <0.156
# [3] = test system: buffered rumen fluid from a donor steer; test: 23 hour flask rumen fermentation, volatile fatty acid production
# Experimental: The effects of each additive on 23 hour flask rumen fermentation were assayed. Each flask contained 10 ml of rumen fluid and 10 ml of nutrient broth comprising (mg/flask): casein hydrolysate: 20, maltose: 100, urea: 15, solka floc (cellulose): 400 and starch: 100. The flasks were incubated on a shaker at 39° C.
# In Table A, ACE is acetate, PRO is propionate, IBU is isobutyrate, BUT is butyrate, IVA is isovalerate, VAL is valerate, TOTAL is total VFA and %PR is the amount of propionate relative to TOTAL. Amounts of each VFA are reported as percentages of control ruminant fluid, that is, without additive.
# cecum fluid from a swine = test: swine in vitro model, cecum fluid incubation
# Experimental: The swine in vitro model was carried by incubating 1.5 ml of cecum fluid, from a swine fed normal rations, mixed with 1.5 ml of a nutrient broth (3 mg casein hydrolysate, 30 mg maltose, 1.25 mg urea, 0.5 mg lysine, and 30 mg cellobiose) and with up to 166.67 parts per million of a selected growth promotant at 39° C., with oscillation, for about 4-5 hours. Results, percentage of control, are reported in the following table in which all abbreviations are as above and LLAC means L-lactate, ETOH means ethanol and GLU means glucose.
# [4] = Table 3 test organism 4, S. epidermidis strain
# [5] = Table 3 test organism 6, S. epidermidis strain
# [6] = Table 3 test organism 1, S. aureus strain
# [7] = Table 3 test organism 2, S. aureus strain
# [8] = Table 3 test organism 3, S. aureus strain
# [9] = Table 3 test organism 7, Streptococcus faecalis strain
# [10] = Table 3 test organism 8, Streptococcus faecalis strain
# [11] = Table 7, vs Staph. aureus HH 127 (S.C.), read-out: ED50
# [12] = Table 7: 40 mg/kg, 4 hr preinfection, S.C.
# [13] = Table 8, vs Staph. aureus HH 127 (I.V.)
# [14] = Table 8: 40 mg/kg (I.V.), 6 hr preinfection
compound,measurement,setting,value
"CN[C@H](C(=O)NC1C(=O)NC(CCSC)C(=O)NC2C(=O)NC3C(=O)NC(C(=O)NC(C(=O)O)c4cc(O)cc(O)c4-c4cc3ccc4O)C(O)c3ccc(c(Cl)c3)Oc3cc2cc(c3O)Oc2ccc(cc2)C1O)c1ccc(O)cc1 (some centres unmarked) [CWI-785B""-aglycone]",minimum inhibitory concentration,[1]; [4],25.0 µg/mL
same,minimum inhibitory concentration,[1]; [5],25.0 µg/mL
same,minimum inhibitory concentration,[2],50.0 µg/mL
same,minimum inhibitory concentration,Staphylococcus aureus; [6],25.0 µg/mL
same,minimum inhibitory concentration,Staphylococcus aureus; [7],25.0 µg/mL
same,minimum inhibitory concentration,Staphylococcus aureus; [8],25.0 µg/mL
same,minimum inhibitory concentration,Streptococcus faecalis; [9],3.1 µg/mL
same,minimum inhibitory concentration,Streptococcus faecalis; [10],1.6 µg/mL
CN[C@@H](C(=O)NC1C(=O)NC(CCSC)C(=O)NC2C(=O)NC3C(=O)NC(C(=O)NC(C(=O)O)c4cc(O)cc(O)c4-c4cc3ccc4O)C(O)c3ccc(c(Cl)c3)Oc3cc2cc(c3O)Oc2ccc(cc2)C1O)c1ccc(O)cc1 (some centres unmarked) [CWI-785B'-aglycone],minimum inhibitory concentration,[1]; [4],3.1 µg/mL
same,minimum inhibitory concentration,[1]; [5],6.3 µg/mL
same,minimum inhibitory concentration,[2],6.3 µg/mL
same,minimum inhibitory concentration,Staphylococcus aureus; [6],3.1 µg/mL
same,minimum inhibitory concentration,Staphylococcus aureus; [7],3.1 µg/mL
same,minimum inhibitory concentration,Staphylococcus aureus; [8],3.1 µg/mL
same,minimum inhibitory concentration,Streptococcus faecalis; [9],0.8 µg/mL
same,minimum inhibitory concentration,Streptococcus faecalis; [10],0.8 µg/mL
CNC(C(=O)NC1C(=O)NC(CC[S+](C)[O-])C(=O)NC2C(=O)NC3C(=O)NC(C(=O)NC(C(=O)O)c4cc(O)cc(O)c4-c4cc3ccc4O)C(OC3CC(N)C(O)C(C)O3)c3ccc(c(Cl)c3)Oc3cc2cc(c3O)Oc2ccc(cc2)C1O)c1ccc(O)cc1.Cl (centres unmarked) [HPB3 hydrochloride],ED50,STAPH. AUREUS HH 127; [11],1.25 mg/kg
same,PERCENT SURVIVAL,STAPH. AUREUS HH 127; [12],100%
same,survival printed in parentheses under ED 50,STAPH. AUREUS HH 127,90%
same,ED50,STAPH. AUREUS HH 127; [13],< 0.156 mg/kg
same,PERCENT SURVIVAL,STAPH. AUREUS HH 127; [14],60%
CNC(C(=O)NC1C(=O)NC(CCSC)C(=O)NC2C(=O)NC3C(=O)NC(C(=O)NC(C(=O)O)c4cc(O)cc(O)c4-c4cc3ccc4O)C(OC3CC(N)C(O)C(C)O3)c3ccc(c(Cl)c3)Oc3cc2cc(c3O)Oc2ccc(cc2)C1O)c1ccc(O)cc1.Cl (centres unmarked) [HPB4 hydrochloride],ED50,STAPH. AUREUS HH 127; [11],1.25 mg/kg
same,PERCENT SURVIVAL,STAPH. AUREUS HH 127; [12],100%
same,survival printed in parentheses under ED 50,STAPH. AUREUS HH 127,100%
same,ED50,STAPH. AUREUS HH 127; [13],< 0.156 mg/kg
same,PERCENT SURVIVAL,STAPH. AUREUS HH 127; [14],100%
COc1cccc(OC)c1C(=O)N[C@@H]1C(=O)N2[C@@H]1SC(C)(C)[C@@H]2C(=O)O [Methicillin],MIC,"[1]; Staphylococcus epidermidis, Table 1 test organism 14, S. epidermidis strain, read-out: minimum inhibitory concentration",1.6 µg/mL
same,minimum inhibitory concentration,"[1]; Table 1 test organism 15, S. epidermidis strain",1.6 µg/mL
same,minimum inhibitory concentration,"[1]; Table 1 test organism 16, S. epidermidis strain",1.6 µg/mL
same,MIC,"Staphylococcus aureus; Table 1 test organism 1, S. aureus strain",3.1 µg/mL
same,MIC,"Staphylococcus aureus; Table 1 test organism 2, S. aureus strain",12.5 µg/mL
same,MIC,"Staphylococcus aureus; Table 1 test organism 3, S. aureus strain",6.3 µg/mL
same,MIC,"Staphylococcus aureus; Table 1 test organism 4, S. aureus strain",12.5 µg/mL
same,MIC,"Staphylococcus aureus; Table 1 test organism 5, S. aureus strain",12.5 µg/mL
same,MIC,"Staphylococcus aureus; Table 1 test organism 6, S. aureus strain",12.5 µg/mL
same,MIC,"Staphylococcus aureus; Table 1 test organism 7, S. aureus strain",> 50 µg/mL
same,MIC,"Staphylococcus aureus; Table 1 test organism 8, S. aureus strain",> 50 µg/mL
same,MIC,"Staphylococcus aureus; Table 1 test organism 9, S. aureus strain",> 50 µg/mL
same,MIC,"Staphylococcus aureus; Table 1 test organism 10, S. aureus strain",> 50 µg/mL
same,MIC,"Staphylococcus aureus; Table 1 test organism 11, S. aureus strain",> 50 µg/mL
same,MIC,"Staphylococcus aureus; Table 1 test organism 12, S. aureus strain",50 µg/mL
same,MIC,"Staphylococcus aureus; Table 1 test organism 13, S. aureus strain",> 50 µg/mL
"CC[C@@]1([C@@H]2O[C@@H]([C@H]3O[C@@](O)(CO)[C@H](C)C[C@@H]3C)C[C@@H]2C)CC[C@H]([C@]2(C)CC[C@]3(C[C@H](O)[C@@H](C)[C@@H]([C@@H](C)[C@@H](OC)[C@H](C)C(=O)O)O3)O2)O1 [Monensin, monensin]",ACE (acetate),[3]; 0.50 PPM,108 percentages of control
same,BUT (butyrate),[3]; 0.50 PPM,100 percentages of control
same,IBU (isobutyrate),[3]; 0.50 PPM,101 percentages of control
same,IVA (isovalerate),[3]; 0.50 PPM,246 percentages of control
same,PRO (propionate),[3]; 0.50 PPM,96 percentages of control
same,TOTAL (total VFA),[3]; 0.50 PPM,105 percentages of control
same,VAL (valerate),[3]; 0.50 PPM,114 percentages of control
same,ACE (acetate),[3]; 5.00 PPM,96 percentages of control
same,BUT (butyrate),[3]; 5.00 PPM,60 percentages of control
same,IBU (isobutyrate),[3]; 5.00 PPM,77 percentages of control
same,IVA (isovalerate),[3]; 5.00 PPM,106 percentages of control
same,PRO (propionate),[3]; 5.00 PPM,174 percentages of control
same,TOTAL (total VFA),[3]; 5.00 PPM,103 percentages of control
same,VAL (valerate),[3]; 5.00 PPM,41 percentages of control
same,ACE (acetate),[3]; 50.00 PPM,91 percentages of control
same,BUT (butyrate),[3]; 50.00 PPM,53 percentages of control
same,IBU (isobutyrate),[3]; 50.00 PPM,104 percentages of control
same,IVA (isovalerate),[3]; 50.00 PPM,134 percentages of control
same,PRO (propionate),[3]; 50.00 PPM,211 percentages of control
same,VAL (valerate),[3]; 50.00 PPM,38 percentages of control
Virginiamycin,% PR (propionate relative to TOTAL),cecum fluid from a swine; 1.67 PPM,99% OF CONTROL
same,ACE (acetate),cecum fluid from a swine; 1.67 PPM,138% OF CONTROL
same,BUT (butyrate),cecum fluid from a swine; 1.67 PPM,178% OF CONTROL
same,ETOH (ethanol),cecum fluid from a swine; 1.67 PPM,309% OF CONTROL
same,GLU (glucose),cecum fluid from a swine; 1.67 PPM,152% OF CONTROL
same,IBU (isobutyrate),cecum fluid from a swine; 1.67 PPM,0% OF CONTROL
same,IVA (isovalerate),cecum fluid from a swine; 1.67 PPM,251% OF CONTROL
same,LLAC (L-lactate),cecum fluid from a swine; 1.67 PPM,17% OF CONTROL
same,PRO (propionate),cecum fluid from a swine; 1.67 PPM,147% OF CONTROL
same,TOTAL (total VFA),cecum fluid from a swine; 1.67 PPM,148% OF CONTROL
same,VAL (valerate),cecum fluid from a swine; 1.67 PPM,262% OF CONTROL
same,% PR (propionate relative to TOTAL),cecum fluid from a swine; 16.67 PPM,81% OF CONTROL
same,ACE (acetate),cecum fluid from a swine; 16.67 PPM,58% OF CONTROL
same,BUT (butyrate),cecum fluid from a swine; 16.67 PPM,95% OF CONTROL
same,ETOH (ethanol),cecum fluid from a swine; 16.67 PPM,273% OF CONTROL
same,GLU (glucose),cecum fluid from a swine; 16.67 PPM,151% OF CONTROL
same,IBU (isobutyrate),cecum fluid from a swine; 16.67 PPM,0% OF CONTROL
same,IVA (isovalerate),cecum fluid from a swine; 16.67 PPM,40% OF CONTROL
same,LLAC (L-lactate),cecum fluid from a swine; 16.67 PPM,32% OF CONTROL
same,PRO (propionate),cecum fluid from a swine; 16.67 PPM,42% OF CONTROL
same,TOTAL (total VFA),cecum fluid from a swine; 16.67 PPM,52% OF CONTROL
same,VAL (valerate),cecum fluid from a swine; 16.67 PPM,113% OF CONTROL
same,% PR (propionate relative to TOTAL),cecum fluid from a swine; 166.67 PPM,59% OF CONTROL
same,ACE (acetate),cecum fluid from a swine; 166.67 PPM,45% OF CONTROL
same,BUT (butyrate),cecum fluid from a swine; 166.67 PPM,83% OF CONTROL
same,ETOH (ethanol),cecum fluid from a swine; 166.67 PPM,0% OF CONTROL
same,GLU (glucose),cecum fluid from a swine; 166.67 PPM,151% OF CONTROL
same,IBU (isobutyrate),cecum fluid from a swine; 166.67 PPM,0% OF CONTROL
same,IVA (isovalerate),cecum fluid from a swine; 166.67 PPM,56% OF CONTROL
same,LLAC (L-lactate),cecum fluid from a swine; 166.67 PPM,39% OF CONTROL
same,PRO (propionate),cecum fluid from a swine; 166.67 PPM,20% OF CONTROL
same,TOTAL (total VFA),cecum fluid from a swine; 166.67 PPM,34% OF CONTROL
same,VAL (valerate),cecum fluid from a swine; 166.67 PPM,84% OF CONTROL
